Key:
[1] = for molar entropy / mass density: 101.33 kPa; for molar entropy: Small (less than 1 g) adiabatic calorimetry; for mass density: Pycnometric method; for vapor or sublimation pressure: Ebulliometric method (Recirculating still); for Triple point temperature: Adiabatic calorimetry
[2] = Molar enthalpy of transition or fusion; conditions: Adiabatic calorimetry

CC(C)COCC(C)C [diisobutyl ether]
[1]
Conditions	mass density [kg/m3]	molar entropy [J/K/mol]	vapor or sublimation pressure [kPa]
10 K, Crystal 2	–	0.4387	–
15 K, Crystal 2	–	2.36	–
20 K, Crystal 2	–	5.506	–
25 K, Crystal 2	–	9.633	–
30 K, Crystal 2	–	14.45	–
35 K, Crystal 2	–	19.69	–
40 K, Crystal 2	–	25.17	–
45 K, Crystal 2	–	30.79	–
50 K, Crystal 2	–	36.49	–
55 K, Crystal 2	–	42.24	–
60 K, Crystal 2	–	48.03	–
65 K, Crystal 2	–	53.84	–
70 K, Crystal 2	–	59.61	–
75 K, Crystal 2	–	65.3	–
80 K, Crystal 2	–	70.92	–
85 K, Crystal 2	–	76.51	–
90 K, Crystal 2	–	82.09	–
95 K, Crystal 2	–	87.65	–
100 K, Crystal 2	–	93.17	–
110 K, Crystal 2	–	104	–
120 K, Crystal 2	–	114.8	–
130 K, Crystal 2	–	125.4	–
140 K, Crystal 2	–	135.9	–
150 K, Crystal 2	–	146.4	–
160 K, Crystal 2	–	157.1	–
170.71 K, Crystal 1	–	179.1	–
170.71 K, Crystal 2	–	168.6	–
180 K, Crystal 1	–	188.8	–
190.4 K, Crystal 1	–	200.4	–
190.4 K, Liquid	–	259.9	–
200 K, Liquid	–	272.1	–
210 K, Liquid	–	284	–
220 K, Liquid	–	295.5	–
230 K, Liquid	–	306.6	–
240 K, Liquid	–	317.3	–
250 K, Liquid	–	327.8	–
260 K, Liquid	–	338	–
270 K, Liquid	–	348	–
280 K, Liquid	–	357.7	–
290 K, Liquid	–	367.2	–
298.06 K, Liquid	748.62	–	–
298.07 K, Liquid	748.49	–	–
298.09 K, Liquid	748.45	–	–
298.14 K, Liquid	748.69	–	–
298.15 K, Liquid	–	374.8	–
298.18 K, Liquid	748.69	–	–
298.22 K, Liquid	748.09	–	–
300 K, Liquid	–	376.5	–
302.68 K, Liquid	743.72	–	–
302.73 K, Liquid	744.19	–	–
302.79 K, Liquid	743.67	–	–
302.81 K, Liquid	744.14	–	–
302.83 K, Liquid	743.5	–	–
302.86 K, Liquid	743.47	–	–
310 K, Liquid	–	385.6	–
312.72 K, Liquid	733.67	–	–
312.95 K, Liquid	733.53	–	–
312.99 K, Liquid	733.64	–	–
313.02 K, Liquid	733.56	–	–
313.03 K, Liquid	734	–	–
320 K, Liquid	–	394.6	–
330 K, Liquid	–	403.5	–
330.9 K, Liquid	–	–	10.75
336.08 K, Liquid	–	–	13.37
340 K, Liquid	–	412.1	–
341.66 K, Liquid	–	–	16.76
347.21 K, Liquid	–	–	20.79
350 K, Liquid	–	420.8	–
352.09 K, Liquid	–	–	24.97
357.89 K, Liquid	–	–	30.79
360 K, Liquid	–	429.3	–
363.27 K, Liquid	–	–	37.12
369.46 K, Liquid	–	–	45.66
370 K, Liquid	–	437.7	–
375.78 K, Liquid	–	–	55.91
381.77 K, Liquid	–	–	67.26
388.15 K, Liquid	–	–	81.3
392.78 K, Liquid	–	–	92.88
393.58 K, Liquid	–	–	95
394.37 K, Liquid	–	–	97.12
395.14 K, Liquid	–	–	99.28

Conditions	Molar enthalpy of transition or fusion, [2] [kcal/mol]	Triple point temperature, [1] [K]
Crystal 1	2.71	190.4
Crystal 2	0.43	170.71

Source: the NIST ThermoML archive (doi:10.1021/je800998u)
